The source of these data is patent US11447522B2, “Potent soft anti-inflammatory corticosteroid compounds and uses thereof” (Bodor Laboratories, Inc., priority 2017, dated 2022).

Structures are written as SMILES. Read-outs that look alike come from different tables or passages of the source. Bounds are passed on as bounds.

Data set [1] deals with TNF α-production of LPS-stimulated blood cells. The data set is described as follows: TNF-α production of lipopolysaccharide-stimulated human blood. The data set is classed as cell-based. On the procedure:
(§1) The in vitro anti-inflammatory effect of ED and its analogs was assessed using LPS-induced TNF α-release under various conditions (diluted or undiluted whole human blood, preincubation with sera) to determine the intrinsic anti-inflammatory activity and systemic biological stability of the various compounds.
(§2) Commercially available human cytokine ELISA sets were used. TNF-α and GM-CSF sets were purchased from BD Pharmingen, San Diego, Calif., USA) and the IL-1β set was obtained from R&D Systems (Minneapolis, Minn., USA). ELISA was performed according to the manufacturer's protocol. Cell-free supernatants were tested in duplicate. Detection limits were 7.8 pg/ml for TNF-α, 4.7 pg/ml for GM-CSF, and 3.9 pg/ml for IL-1β. Results were expressed as the mean percentage of inhibition. IC50 values for test compounds were calculated by linear regression.
Peripheral blood from healthy donors was collected aseptically into sterile heparinized (Vacutainer™) tubes. Whole blood samples from each individual were parallel used both undiluted and after 5-fold dilution with RPMI-1640 medium in every experiment. Blood samples were distributed into 24-well plates and incubated with serial concentrations of the test compounds and 1 μg/ml lipopolysaccharide for 24 h at 37° C. in a CO2 thermostat. Controls were treated with lipopolysaccharide and the vehicle (PBS or 0.01% dimethyl sulfoxide in PBS). After incubation, cell-free supernatants were separated by centrifugation (1000 g for 10 minutes) and stored at −20° C. until determination of the amount of TNF-α. Test compounds were examined in blood samples from five different individuals. Two parallel cultures per treatments were run.

In data set [2] the test system is mitogen-induced proliferation of PBMC. The data set is described as follows: Proliferation of lectin-stimulated peripheral mononuclear cells. The data set is classed as cell-based, human. The conditions noted are these: read-out: Prolif.**: Inhibition of mitogen-induced proliferation of PBMC. How it is done: Mononuclear cells from heparinized peripheral blood of healthy donors were isolated on suitable gradient (Optiprep solution, 1.077 g/ml). Serial dilutions of the test compounds (ranging from 2×10^−6 to 2×10^−8 M) were made in 100 μl of medium per well of sterile round-bottomed 96-well microtiter plate. Control wells contained culture medium only. 100 μl of cell suspension (10^6 cells/ml), containing concanavalin A (2 μg/ml) was added to each well. […] All cultures were done in triplicate. Microtiter plates were incubated for 72 h at 37° C., in 5% CO2 containing humidified atmosphere. For the last 18 h of incubation, [^3H]thymidine was added to the cells cultures, at 0.1 μCi/well final concentration. At the end of the incubation, cells were harvested to glass microfiber filter (Whatman G/F) and associated radioactivity was determined by liquid scintillation.

For data set [3], the system named is TNF-α production of LPS-stimulated whole blood cells. The data set is described as follows: Stability: inhibition of TNF-α production with or without preincubation of the compounds in human plasma/serum. The data set is classed as cell-based. The conditions noted are these: for potency and softness compared with the corresponding compounds 11 and 15: see Table 1. How it is done:
as §1, §2
Mononuclear cells from peripheral blood of healthy donors were isolated on Ficoll-gradient. One million cells in 0.9 ml of RPMI 1640 medium were distributed into 24-well plates and serial concentrations of the test compounds, made in fresh human serum either instantly or 18 h previously, were added (0.05 ml) together with the lipopolysaccharide (0.05 ml; 1 μg/ml final concentration). Preincubation of the compounds with serum was carried out at 37° C. Processing of the cultures was done as described above.

Data set [4] is described as follows: Stability in the presence of human plasma (HPLC/MS/MS). The data set is classed as in vitro ADME. The conditions noted are these: 37° C. On the procedure:
Etiprednol dicloacetate (BNP-166) was added to freshly prepared human plasma of healthy donors at a concentration of 5 ng/ml, and were incubated at 37° C. for different intervals. After incubation the amount of the original compound (ethyl-17α-dichloroacetoxy-11β-hydroxyandostra-1,4-diene-3-one-17β-carboxylate), and one of its main metabolite, M-OH (17α,11β-dihydroxyandostra-1,4-diene-3-one-17β-carboxylate) were determined using an HPLC/MS/MS method. In brief: Fluocinolone acetonide served as internal standard (20 ng/ml), samples were extracted with a liquid-liquid extraction on Extrelut® columns, and were separated on a Purospher STAR 30×2 mm (3 μm) reversed phase column at a flow rate of 0.3 ml/min, using a linear gradient with a mobile phase system containing acetonitrile, water and acetic acid. Determination were performed on a triple quadrupole mass spectrometer (Perkin-Elmer SCIEX API 2000) supplied with an electrospray interface operated in the positive ionization mode. The multiple ion monitoring, parent→daughter ion transitions of 485.2→265.2, 375.2→265.2 and 495.2→337.2 were used for the quantification of etiprednol dicloacetate, its M-OH metabolite and for the internal standard respectively. Results are expressed as peak areas normalized to the internal control. Stability of the selected ED analogs (10, 11, 13, 17, 21, 25) were determined as described above for ED (3).

Data set [5] has as its system ovalbumin sensitized and challenged Brown Norway rats. Nature of the data set: Airway changes of ovalbumin sensitized and challenged Brown Norway rats, intratracheal administration. The data set is classed as in vivo. The conditions noted are these: for AHR (airways hyperreactivity) ED50: relative response to maximal acetylcholine dose.
The mark [6] stands for this setting: diluted blood 1:5, read-out: TNFα* a: Inhibition of TNF α-production of LPS-stimulated blood cells.
[7] abbreviates: undiluted blood, read-out: TNFα* b: Inhibition of TNF α-production of LPS-stimulated blood cells.
[8] abbreviates: non-preincubated in human plasma, read-out: Stability*** c: Inhibition of TNF-α production of LPS-stimulated whole blood cells.
Setting [9] is: preincubated overnight in human plasma, read-out: Stability*** d: Inhibition of TNF-α production of LPS-stimulated whole blood cells.
[10] abbreviates: intratracheal, 2 hours prior challenge.
Where [11] appears, read: intratracheal, 2 hours prior challenge, minimal statistically significantly effective dose.

Turning to `COC(=O)[C@@]1(OC(=O)C(Cl)Cl)[C@@H](C)C[C@H]2[C@@H]3CCC4=CC(=O)C=C[C@]4(C)[C@@]3(F)[C@@H](O)C[C@@]21C` [Compound 10, Methyl 17α-dichloroacetoxy-9α-fluoro-16β-methyl-11β-hydroxy-3-oxoandrosta-1,4-diene-17β-carboxylate], the IC50 in data set [1] (setting [6]) was 4 ± 3 nM; in data set [1] (setting [7]), 20 ± 10 nM; in data set [2], under 0.01 nM; in data set [3] (setting [8]) it was 1.7 nM; in data set [3] (setting [9]), 10.2 nM.
Regarding `C[C@H]1C[C@H]2[C@@H]3C[C@H](F)C4=CC(=O)C=C[C@]4(C)[C@@]3(F)[C@@H](O)C[C@]2(C)[C@@]1(OC(=O)C(Cl)Cl)C(=O)OCCO` [Compound 17, 2-Hydroxyethyl 6α,9α-difluoro-17α-dichloroacetoxy-16β-methyl-11β-hydroxy-3-oxoandrosta-1,4-diene-17β-carboxylate], the IC50 in data set [1] (setting [6]) is under 1 nM; in data set [1] (setting [7]), 3.7 ± 2.6 nM; in data set [2], 0.13 ± 0.02 nM; in data set [3] (setting [8]) it was 1.9 nM; in data set [3] (setting [9]), 19.2 nM. In addition, the “stability in the presence of human plasma” value in data set [4] is “particularly stable”. Besides, the “potency and softness compared with the corresponding compounds 11 and 15” value in data set [3] was “more potent but softer”.
As for `CC1CC2C3CC(F)C4=CC(=O)C=CC4(C)C3(F)C(O)CC2(C)C1(OC(=O)C(Cl)Cl)C(=O)SCCl` (stereo not drawn) [Compound 26, S-Chloromethyl 17α-dichloroacetoxy-6α,9α-difluoro-11β-hydroxy-16α-methyl-3-oxoandrosta-1,4-diene-17β-carbothioate], the IC50 in data set [1] (setting [6]) worked out at 6 nM; in data set [1] (setting [7]) it was 12 nM; in data set [2], 3 nM.
Regarding `CCOC(=O)[C@@]1(OC(=O)C(Cl)Cl)[C@@H](C)C[C@H]2[C@@H]3CCC4=CC(=O)C=C[C@]4(C)[C@@]3(F)[C@@H](O)C[C@@]21C` [Compound 11, Ethyl 17α-dichloroacetoxy-9α-fluoro-16β-methyl-11β-hydroxy-3-oxoandrosta-1,4-diene-17β-carboxylate], the “overall in vivo activity compared with the parent steroid” value in data set [5] (Table 2 parameters) is listed as “does not represent significant improvement over ED, except in mucus production”. Further, in data set [5] (setting [10]), the “Edema formation ED50” value stood at 93 µg/kg, the “Eosinophilia BALF ED50” value was over 100 µg/kg, the “Eosinophilia Peribronchial ED50” value amounted to 10.3 µg/kg and the “Mucus production ED50” value is under 1 µg/kg. For the same molecule, in data set [5] (setting [10]), the “Mucus production, second line (dose type not given)” value was under 1 µg/kg and the “AHR (airways hyperreactivity) ED50” value came to 19.4 µg/kg. In data set [5] (setting [11]), the “AHR (airways hyperreactivity) MSED” value came out at 20.0 µg/kg, the “Edema formation MSED” value turned out to be 0.5 µg/kg and the “Eosinophilia Peribronchial MSED” value amounted to 12.0 µg/kg. In addition, the IC50 in data set [1] (setting [6]) was found to be 1.7 ± 2 nM. For the same molecule, the IC50 in data set [1] (setting [7]) stood at 7.1 ± 4 nM. The IC50 in data set [2] came out at 0.012 nM. In addition, in data set [3] (setting [8]), the IC50 came to 16 nM. Moreover, the IC50 in data set [3] (setting [9]) is 18 nM.
Consider `CCOC(=O)[C@@]1(OC(=O)C(Cl)Cl)[C@@H](C)C[C@H]2[C@@H]3C[C@H](F)C4=CC(=O)C=C[C@]4(C)[C@@]3(F)[C@@H](O)C[C@@]21C` [Compound 15, Ethyl 6α,9α-difluoro-17α-dichloroacetoxy-16β-methyl-11β-hydroxy-3-oxoandrosta-1,4-diene-17β-carboxylate], for which the IC50 was 2 nM in data set [1] (setting [6]), 14 nM in data set [1] (setting [7]) and under 0.01 nM in data set [2].
As to `C[C@H]1C[C@H]2[C@@H]3CCC4=CC(=O)C=C[C@]4(C)[C@@]3(F)[C@@H](O)C[C@]2(C)[C@@]1(OC(=O)C(Cl)Cl)C(=O)OCCl` [Compound 12, Chloromethyl 17α-dichloroacetoxy-9α-fluoro-16β-methyl-11β-hydroxy-3-oxoandrosta-1,4-diene-17β-carboxylate], the values for the IC50 in data set [1] (setting [6]), in data set [1] (setting [7]) and in data set [2] were 20 ± 8 nM, 35 ± 12 nM and 0.05 ± 0.12 nM, respectively.
The corresponding values for `C[C@H]1C[C@H]2[C@@H]3C[C@H](F)C4=CC(=O)C=C[C@]4(C)[C@@]3(F)[C@@H](O)C[C@]2(C)[C@@]1(OC(=O)C(Cl)Cl)C(=O)OCCl` [Compound 16, Chloromethyl 6α,9α-difluoro-17α-dichloroacetoxy-16β-methyl-11β-hydroxy-3-oxoandrosta-1,4-diene-17β-carboxylate] are 0.4 nM, 5.1 ± 1.7 nM and 26 ± 26 nM.
For the molecule `C[C@H]1C[C@H]2[C@@H]3CCC4=CC(=O)C=C[C@]4(C)[C@@]3(F)[C@@H](O)C[C@]2(C)[C@@]1(OC(=O)C(Cl)Cl)C(=O)OCCO` [Compound 13, 2-Hydroxyethyl 17α-dichloroacetoxy-9α-fluoro-16β-methyl-11β-hydroxy-3-oxoandrosta-1,4-diene-17β-carboxylate], the IC50 in data set [1] (setting [6]) amounted to 4.6 ± 6 nM; in data set [1] (setting [7]) it was 5.8 ± 5 nM; in data set [3] (setting [8]) it was 4.5 nM; in data set [3] (setting [9]), 53.5 nM. Moreover, the “stability in the presence of human plasma” value in data set [4] is given as “particularly stable”. Also, in data set [3], the “potency and softness compared with the corresponding compounds 11 and 15” value is reported as “more potent but softer”.
Consider `C[C@@H]1C[C@H]2[C@@H]3C[C@H](F)C4=CC(=O)C=C[C@]4(C)[C@@]3(F)[C@@H](O)C[C@]2(C)[C@@]1(OC(=O)C(Cl)Cl)C(=O)OCCl` [Compound 22, Chloromethyl 17α-dichloroacetoxy-6α,9α-difluoro-11β-hydroxy-16α-methyl-3-oxoandrosta-1,4-diene-17β-carboxylate], for which the IC50 in data set [1] (setting [6]) is 4 nM; in data set [1] (setting [7]), 4 nM; in data set [2], 0.02 nM.
For `CCC(=O)O[C@]1(C(=O)SCF)[C@H](C)C[C@H]2[C@@H]3C[C@H](F)C4=CC(=O)C=C[C@]4(C)[C@@]3(F)[C@@H](O)C[C@@]21C` [FLU, fluticasone propionate], in data set [5] (setting [10]), the “Edema formation ED50” value worked out at 2.8 µg/kg, the “Eosinophilia BALF ED50” value is over 100 µg/kg, the “Eosinophilia Peribronchial ED50” value amounted to 10.5 µg/kg and the “Eosinophilia Perivascular ED50” value stood at 45.0 µg/kg. For the same molecule, in data set [5] (setting [10]), the “Mucus production ED50” value is under 1.0 µg/kg; the “Mucus production, second line (dose type not given)” value was 1.0 µg/kg; the “AHR (airways hyperreactivity) ED50” value came to 0.14 µg/kg. The “BALF protein ED50” value in data set [5] (intratracheal, 2 hours prior challenge, broncho-alveolar lavage fluid) came out at 11.2 µg/kg. Moreover, in data set [5] (setting [11]), the “AHR (airways hyperreactivity) MSED” value was 0.1 µg/kg, the “BALF protein MSED” value is 10.0 µg/kg, the “Edema formation MSED” value came to 1.0 µg/kg and the “Eosinophilia BALF MSED” value was 10.0 µg/kg. For the same molecule, in data set [5] (setting [11]), the “Eosinophilia Peribronchial MSED” value came to 1.0 µg/kg and the “Eosinophilia Perivascular MSED” value worked out at 10.0 µg/kg.
Regarding `COC(=O)C1(OC(=O)C(Cl)Cl)C(C)CC2C3CC(F)C4=CC(=O)C=CC4(C)C3(F)C(O)CC21C` (stereo not drawn) [Compound 14, Methyl 6α,9α-difluoro-17α-dichloroacetoxy-16β-methyl-11β-hydroxy-3-oxoandrosta-1,4-diene-17β-carboxylate], the IC50 in data set [1] (setting [6]) was 0.8 ± 0.6 nM; in data set [1] (setting [7]), 1.7 ± 0.9 nM; in data set [2], under 0.01 nM.
